Reference: patent US4347323A, “Glycerol kinase from Streptomyces canus” (Toyo Jozo Kabushiki Kaisha, priority 1979, dated 1982)
Entries after “also recorded” stand apart in the source; their conditions may differ. Like-named read-outs stand apart in the source and are kept apart here.

Legend:
[1] = system: glycerol kinase (GK) produced by Streptomyces canus A 2408; experiment: Specific activity for nucleotide; type: biochemical; settings: for Relative activity (%): 10 mM ATP replaced by the nucleotide, formed glycero-3-phosphate measured
Protocol: (ii) specific activity for nucleotide:
In assay method (i) hereinabove, 10 mM ATP is replaced by CTP, ITP, GTP and UTP and measures the formed glycero-3-phosphate.

[2] = system: glycerol kinase (GK) produced by Streptomyces canus A 2408; experiment: Km value of GK for its substrates; type: biochemical
Protocol: The above mixture (1 ml) is preincubated at 37° C. for 5 minutes and GK solution (50 μl) [diluted with GL-buffer (10 mM phosphate buffer containing 10 mM glycerol, pH 7.5)] is added thereto and incubated at 37° C. for 10 minutes.
One unit of GK is defined as liberating […] of glycero-3-phosphate per minute.
Enzyme activity is calculated by the following equation: [formula]

[3] = system: Escherichia coli GK (E.Co-GK); settings: cited from earlier work
[4] = system: glycerol kinase (GK) produced by Streptomyces canus A 2408; experiment: Substrate specificity for glycerol, dihydroxyacetone phosphate and D-glyceraldehyde (ADP assay); type: biochemical; settings: for Relative activity: substrate 0.1 M, 0.05 ml, 37° C. for 10 minutes, ADP assayed at 550 nm
Protocol: (i) specificity for glycerol, dihydroxyacetone phosphate and D-glyceraldehyde: […]
The reaction mixture (0.95 ml) is preincubated at 37° C. for 3 minutes, and the enzyme solution (dissolved in 10 mM phosphate buffer, pH 7.5, 0.05 ml) is added thereto. Then the mixture is incubated at 37° C. for 10 minutes. The reaction is stopped by boiling for 3 minutes. After cooling to 37° C., the amount of ADP is assayed. ADP is assayed by adding an ADP-assay solution (2.0 ml) comprising the following mixture: […]
The reaction mixture is incubated at 37° C. for 15 minutes. Color formation is measured at 550 nm to calculate the substrate specificity.

[5] = system: glycerol kinase (GK) produced by Streptomyces canus A 2408; experiment: Effect of metal ions and p-chloromercuribenzoate (PCMB); type: biochemical
Description: Effect of metal ions and p-chloromercuribenzoate (PCMB)

[6] = system: pigeon heart GK (Pig.-GK); settings: cited from earlier work

O=c1[nH]cnc2c1ncn2[C@@H]1O[C@H](COP(=O)(O)OP(=O)(O)OP(=O)(O)O)[C@@H](O)[C@H]1O [ITP]
Relative activity (%) [1]: 47%

Nc1ncnc2c1ncn2[C@@H]1O[C@H](COP(=O)(O)OP(=O)(O)OP(=O)(O)O)[C@@H](O)[C@H]1O [ATP]
Km [2]: 200 µM | nucleotide specificity (in words) [1]: especially high specificity | Relative activity (%) [1]: 100% | nucleotide specificity (in words) [3]: acts only for ATP

OCC(O)CO [glycerol]
Km [2]: 48 µM | substrate specificity (in words) ([4]; glycerol versus dihydroxyacetone phosphate): higher specificity | Relative activity [4]: 100%

O=c1ccn([C@@H]2O[C@H](COP(=O)(O)OP(=O)(O)OP(=O)(O)O)[C@@H](O)[C@H]2O)c(=O)[nH]1 [UTP]
Relative activity (%) [1]: 18%

[Cl-].[Cl-].[Mg+2] [MgCl2]
Effect of metal ion on GK activity (in words) [5]: activated | Relative Activity (%) with 1 mM Mg++ ([5]; reagent 1.0 mM): 100% | Relative Activity (%) without Mg++ ([5]; reagent 1.0 mM): 100%

[Ca+2].[Cl-].[Cl-] [CaCl2]
Effect of metal ion on GK activity (in words) [5]: inhibited | Relative Activity (%) with 1 mM Mg++ ([5]; reagent 1.0 mM): 54% | Relative Activity (%) without Mg++ ([5]; reagent 1.0 mM): 0%

O=C(CO)CO [dihydroxyacetone]
Km [2]: 660 µM | Relative activity [4]: 74%

Nc1nc2c(ncn2[C@@H]2O[C@H](COP(=O)(O)OP(=O)(O)OP(=O)(O)O)[C@@H](O)[C@H]2O)c(=O)[nH]1 [GTP]
Relative activity (%) [1]: 19%

O=C(O)c1cc[c]([Hg][Cl])cc1 [PCMB, p-chloromercuribenzoate]
Inhibition of GK activity by PCMB (in words) ([5]; 7.5×10^-6 M of PCMB): completely inhibits | Relative Activity (%) with 1 mM Mg++ ([5]; PCMB 5.0 × 10^-6 M): 13% | Relative Activity (%) with 1 mM Mg++ ([5]; PCMB 7.5 × 10^-6 M): 0%

Nc1ccn([C@@H]2O[C@H](COP(=O)(O)OP(=O)(O)OP(=O)(O)O)[C@@H](O)[C@H]2O)c(=O)n1 [CTP]
nucleotide specificity (in words) [1]: especially high specificity | Relative activity (%) [1]: 92%

[Cl][Mn][Cl] [MnCl2]
Effect of metal ion on GK activity (in words) ([5]; listed as Mn++): inhibited; also recorded: strongly inhibits | Relative Activity (%) with 1 mM Mg++ ([5]; reagent 1.0 mM): 14% | Relative Activity (%) without Mg++ ([5]; reagent 1.0 mM): 6% | use as divalent metal ion (in words) [3]: can be used | use as divalent metal ion (in words) [6]: can be used

O=C[C@H](O)CO [D-glyceraldehyde]
Km [2]: 350 µM | Relative activity [4]: 20%

dihydroxyacetone phosphate
activity for dihydroxyacetone phosphate as compared with glycerol [3]: nearly twice
